From paper PMC6838683, “Discovery of Human Signaling Systems: Pairing Peptides to G Protein-Coupled Receptors” (Cell, 2019) come the findings set out here.

The term Emax denotes the maximal effect, on the per cent scale that the assay sets.

Like-named read-outs stand apart in the source and are kept apart here. Residues, ends and D or L forms follow the SMILES beside them.

Type in all cases: cell-based
One assay concerns the target T1, GPR15 (Homo sapiens, UniProt P49685).
T1 construct: hIL-2Ra signal peptide (N); expressed in transfected cells
T1 sequence (P49685 2-360 limits assumed): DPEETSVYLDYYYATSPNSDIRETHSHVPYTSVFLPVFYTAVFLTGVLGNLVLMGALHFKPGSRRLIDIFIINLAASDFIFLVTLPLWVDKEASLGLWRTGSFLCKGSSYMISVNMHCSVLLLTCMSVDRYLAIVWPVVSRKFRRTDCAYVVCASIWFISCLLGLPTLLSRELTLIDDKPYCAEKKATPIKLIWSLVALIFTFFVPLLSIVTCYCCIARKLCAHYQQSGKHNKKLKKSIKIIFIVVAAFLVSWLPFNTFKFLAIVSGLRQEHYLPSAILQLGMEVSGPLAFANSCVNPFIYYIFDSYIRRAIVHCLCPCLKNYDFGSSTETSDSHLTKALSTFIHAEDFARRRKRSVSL
As to the kind of experiment: cAMP inhibition (Gi/o), HTRF with forskolin. Particulars: mean. The method, then:
Peptide-dependent second messenger responses were measured using commercially available HTRF-based IP1 and cAMP kits (Cisbio) as described previously ([Nørskov-Lauritsen et al., 2014]). Receptor expression was induced for 48 hr with 0.1 μg/ml doxycycline in 10 cm dishes. For IP1 measurements (to measure Gq/11), 2,500 cells/well were mixed with ligands in triplicate wells in low volume white 384-well plates at 37°C for 30 min. For cAMP assays, 2,500 cells/well were added in triplicate wells in white 384-well plates in the absence or presence of 3 μM forskolin (to measure Gs and Gi/o activation respectively). 100 μM IBMX was included to prevent cAMP degradation during 30 min stimulation on a plate shaker at room temperature. For both assays, HTRF was measured using an EnVision 2104 Multimode plate reader (PerkinElmer).
On the technique in general: Time-resolved FRET reads energy transfer from a long-lived donor to a nearby acceptor.

A further assay has as its target GPR68 (Homo sapiens, UniProt Q15743). As to the kind of experiment: GloSensor cAMP assay (Gs), allosteric operational model fitting. On the set-up: expressed in transfected cells; host or cells: HEK293T, transient (PEI), co-transfected with GloSensor cAMP plasmid. Particulars: for Log(ab/KB): allosteric operational model parameter, GPR68 GloSensor cAMP. The method, then: GPR68-mediated cAMP signaling was measured using GloSensor cAMP assays as published previously ([Huang et al., 2015], [Yu et al., 2019]) with modifications as indicated below. Calcium- and magnesium-free HBSS was supplemented with different organic buffer reagents for different pH solutions, 20 mM 2-(N-morpholino)ethanesulfonic acid (MES, Alfa Aesar) for pH 6.00 – 6.70, 20 mM 4-(2-hydroxyethyl)-1-piperazineethanesulfonic acid (HEPES, Fisher) for pH 6.80 – 8.20, and 20 mM (tris(hydroxymethyl)methylamino)propanesulfonic acid (TAPS) for pH 8.30 – 8.60. The phosphodiesterase (PDE) inhibitor Ro 20-1724 (10 μM final, Cayman Chemical) was included in pH buffers to eliminate potential effect of PDE […]. HEK293T cells were transfected with a modified polyethylenimine (PEI, Polysciences) transfection method ([Longo et al., 2013]). For a 15-cm dish of HEK293T cells with 25 mL growth medium, 8 μg receptor DNA and 8 μg GloSensor DNA (Promega) were mixed in 1 mL of Opti-MEM medium followed by addition of 80 μL PEI reagents. The mixture was added to cells after 20 min incubation at room temperature. Overnight transfected cells were plated in poly-L-lysine (Sigma) coated 384-well white clear bottom plates (Greiner Bio-One, #781098) using DMEM (Corning) + 1% dialyzed FBS (Omega Scientific) for at least 6 h (up to 24 h). Cells were removed of medium before receiving 20 μL/well of 3.5 mM luciferin (Goldbio) prepared in assay buffer (HBSS, 20 mM TAPS, pH 8.40, 10 μM Ro 20-1724) for 1 h at 37°C. Luciferin loading solutions were removed and premixed drug solutions at desired pH conditions were added to cells (25 μL/well). Luminescence was measured 25-30 min after drug application. Results were normalized (basal and maximum responses in the absence of modulator were set to be 0 and 100%) and pooled for analysis using GraphPad Prism.
All of the other parameters, including allosteric affinity cooperativity (α), allosteric modulator binding affinity KB, orthosteric agonist (protons) efficacy τA, system maximal response, and slope factor n were all globally shared for all datasets for each modulator. […] We therefore used an allosteric index, log(αβ/KB) ([Kenakin, 2017a]), which contains both allosteric binding affinity and cooperativity, to quantify the overall allosteric activity.
Background: Cyclic AMP is a second messenger, typically raised through Gs and lowered through Gi signalling.

Assay [1] concerns the target T2, GPR55 (Homo sapiens, UniProt Q9Y2T6). As to the kind of experiment: Dynamic mass redistribution (DMR), concentration-response. Particulars: receptor GPR55, mean; for DMR assays Emax (peak or AUC): SEM and n (1-4). Set-up: hIL-2Ra signal peptide (N); expressed in transfected cells. The method, then:
(§1) 48 hr prior to parallel assaying, SNAP-tagged oGPCR cells were plated (10,000 cells/well) in fibronectin-coated 384-well Epic biosensor microplates (Corning) and poly-D-lysine coated white 384-well plates (for internalization assays). SNAP- GLP-1 receptor was plated alongside orphan receptor cells as an internal assay control for internalization assays. Receptor-expression was induced with 0.1 μg/ml doxycycline.
DMR assays provide a single integrated readout of ligand-dependent cellular response, utilizing an optical biosensor in specialized microplates to detect wavelength shifts of reflected light as it passes through the biosensor and the lower portion of the cell (∼150-200 nm). As a signal pathway agnostic approach, DMR assays are well-suited to the study of GPCRs ([Fang et al., 2008], [Schröder et al., 2011]). The mass redistribution response (Δ picometer (pm)) likely reflects a number of intracellular events, including cytoskeletal rearrangement, protein trafficking and receptor internalization. Orphan receptor-expressing cells were gently washed twice with assay buffer (HBSS with 1 mM CaCl2, 1 mM MgCl2, 20 mM HEPES, 0.01% pluronic F-68, pH 7.4) containing 0.1% DMSO and cells were equilibrated for 90 min at 22°C in the EPIC Benchtop (BT) System (Corning) to establish a stable DMR signal. After 3-5 min baseline recordings, peptides (10 μM) were added in duplicate wells using an electronic 384-channel Viaflo pipette (Integra Biosciences, Switzerland) and DMR responses were measured for 60 min at 22°C. 100 nM norepinephrine was included as an internal assay control to assess the cellular DMR response via endogenously-expressed adrenoceptors in the TREx 293 cells. Real-time data were processed using the BT to column converter MS-Excel macro (Corning) and analyzed in GraphPad Prism 7.0. DMR recordings in peptide screening experiments were buffer and solvent corrected and the area under the curve (AUC) was quantified. For subsequent validation experiments, peptides were diluted in assay buffer containing 0.1% DMSO and DMR assays were performed as above. […] Data represent mean ± standard error of the mean (SEM) from at least 3 biologically independent experiments.

Assay [2] deals with T2, GPR55. As to the kind of experiment: Real-time receptor internalization (TR-FRET), concentration-response. Set-up: hIL-2Ra signal peptide (N); expressed in transfected cells. Particulars: receptor GPR55, mean, SEM and n (3-4). The method, then:
as §1
A TR-FRET real-time internalization assay was used to examine peptide-dependent changes in orphan receptor localization as described previously ([Foster and Bräuner-Osborne, 2018]). Surface-expressed SNAP-tagged receptors were labeled with a cell-impermeable luminescent terbium cryptate (100 nM SNAP Lumi4-Tb; Cisbio, France) for 1 hr at 37°C. Cells were washed to remove excess terbium and incubated with fluorescein-O-acetic acid (100 μM; Sigma Aldrich) for 5 min at 37°C. Peptides were added as for DMR assays, and internalization responses were recorded for 60 min at 37°C using an EnVision 2104 Multimode plate reader (PerkinElmer). 100 nM GLP-1 was used as a positive control for SNAP-GLP1R internalization. Real-time internalization responses were calculated based on TR-FRET (excitation 340 nm; emission 520 nm and 615 nm), and were expressed as the ratio between donor (terbium) and acceptor (fluorescein) emission. For peptide screening analysis (both DMR and internalization assays), we calculated the area under the curve from the real-time traces. […] Validation experiments for receptor internalization were performed as above. Internalization data was processed in MS-Excel and area under the curve was used to generate concentration-response curves using GraphPad Prism 7.0. Data represent mean ± standard error of the mean (SEM) from at least 3 biologically independent experiments.

A further assay has as its target T3, MRGPRX2 (Homo sapiens, UniProt Q96LB1).
T3 construct: host or cells: HTLA cells (HEK293-derived)
T3 sequence (Q96LB1 1-330): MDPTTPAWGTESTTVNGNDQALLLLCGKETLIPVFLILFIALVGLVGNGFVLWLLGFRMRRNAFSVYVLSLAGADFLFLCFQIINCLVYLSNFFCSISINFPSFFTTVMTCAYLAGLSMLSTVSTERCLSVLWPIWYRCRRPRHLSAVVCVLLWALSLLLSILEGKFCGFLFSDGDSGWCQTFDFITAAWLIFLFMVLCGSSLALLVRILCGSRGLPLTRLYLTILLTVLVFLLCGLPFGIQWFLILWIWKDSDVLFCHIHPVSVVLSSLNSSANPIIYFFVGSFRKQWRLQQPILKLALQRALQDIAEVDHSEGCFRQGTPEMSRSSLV
As to the kind of experiment: β-arrestin recruitment (Tango), known peptide receptors. Particulars: mean, n = 3. (In general: Activated receptors often draw arrestin, which recruitment assays turn into a signal.)

T2 sequence (Q9Y2T6 2-319 limits assumed): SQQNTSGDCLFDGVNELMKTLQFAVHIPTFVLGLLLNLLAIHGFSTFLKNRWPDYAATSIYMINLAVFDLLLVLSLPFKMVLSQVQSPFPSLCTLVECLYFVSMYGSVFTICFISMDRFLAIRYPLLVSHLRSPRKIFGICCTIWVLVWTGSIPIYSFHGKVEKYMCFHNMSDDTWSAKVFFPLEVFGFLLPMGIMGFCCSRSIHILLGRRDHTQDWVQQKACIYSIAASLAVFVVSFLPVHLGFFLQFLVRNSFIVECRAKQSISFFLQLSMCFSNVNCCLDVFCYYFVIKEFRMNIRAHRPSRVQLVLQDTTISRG
Sequence of GPR68 (Q15743 whole entry): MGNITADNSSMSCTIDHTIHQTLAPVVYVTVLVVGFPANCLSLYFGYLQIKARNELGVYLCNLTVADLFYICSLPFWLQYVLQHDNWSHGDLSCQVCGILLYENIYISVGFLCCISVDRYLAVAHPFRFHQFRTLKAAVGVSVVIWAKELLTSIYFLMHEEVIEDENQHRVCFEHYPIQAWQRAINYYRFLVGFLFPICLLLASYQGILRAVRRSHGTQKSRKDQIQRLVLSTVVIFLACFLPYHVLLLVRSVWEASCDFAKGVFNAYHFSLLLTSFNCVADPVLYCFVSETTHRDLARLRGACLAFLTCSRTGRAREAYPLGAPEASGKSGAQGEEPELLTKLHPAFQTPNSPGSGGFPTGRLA

Consider `CC(C)C[C@H](NC(=O)[C@H](C)NC(=O)CNC(=O)[C@@H]1CCCN1C(=O)[C@@H](NC(=O)[C@@H](NC(=O)[C@H](Cc1c[nH]c2ccccc12)NC(=O)[C@@H](N)CC(C)C)C(C)C)C(C)C)C(=O)N1CCC[C@H]1C(=O)N[C@@H](CCC(N)=O)C(=O)N[C@H](C(=O)O)C(C)C` [64 resynthesized] (H-LWVVPGALPQV-OH), for which the maximal response (Emax) at GPR15 (receptor GPR15, SEM and n (4), read-out: cAMP accumulation assays Emax (% FSK)) was determined as 30.8%.

Turning to `CC(C)C[C@H](NC(=O)[C@H](C)NC(=O)CNC(=O)[C@@H]1CCCN1C(=O)[C@@H](NC(=O)[C@@H](NC(=O)[C@H](Cc1c[nH]c2ccccc12)NC(=O)[C@@H](N)CC(C)C)C(C)C)C(C)C)C(=O)N1CCC[C@H]1C(=O)N[C@@H](CCC(N)=O)C(=O)N[C@H](C(=O)O)C(C)C` [GPR15L_(47-57)] (H-LWVVPGALPQV-OH), the Emax at GPR15 (GPR15, SEM and n, read-out: Emax, cAMP (% FSK)) was 29.2%.

On to `Nc1nc(NCc2ccccc2)nc(-c2ccccc2CO)n1` [Ogerin], for which the “Log(ab/KB)” value at GPR68 (replicate 1) was found to be 5.25; at GPR68 (replicate 2) it was 5.23; on GPR68 (replicate 3) it was 5.25.

Regarding `CC[C@H](C)[C@H](NC(=O)[C@H](CCCNC(=N)N)NC(=O)[C@H](C)NC(=O)CNC(=O)[C@H](CCCCN)NC(=O)[C@H](CCCNC(=N)N)NC(=O)[C@@H](NC(=O)[C@H](C)NC(=O)[C@H](CS)NC(=O)[C@H](CCC(N)=O)NC(=O)[C@H](CCC(=O)O)NC(=O)CNC(=O)[C@H](C)NC(=O)[C@H](CC(=O)O)NC(=O)[C@H](CS)NC(=O)[C@H](CCSC)NC(=O)[C@@H]1CCCN1C(=O)[C@@H](NC(=O)[C@H](CCC(N)=O)NC(=O)CNC(=O)[C@@H](N)Cc1ccc(O)cc1)C(C)C)C(C)C)C(=O)O` [Pepetide 139] (H-YGQVPMCDAGEQCAVRKGARI-OH; N-terminus assumed), the “Log(ab/KB)” value at GPR68 (replicate 1) came to 5.24; at GPR68 (replicate 2) it was 5.36; at GPR68 (replicate 3) it was 5.40; on GPR68 (replicate 4) it was 5.40. Besides, the Fold difference on GPR68 (fold difference of ab/KB relative to Ogerin) was 1.28.

With `C[C@H](NC(=O)[C@@H](N)Cc1c[nH]c2ccccc12)C(=O)N[C@@H](CCCNC(=N)N)C(=O)NCC(=O)N[C@@H](CS)C(=O)N[C@@H](CO)C(=O)N[C@H](C(=O)NCC(=O)N[C@@H](CC(N)=O)C(=O)O)[C@@H](C)O` [Peptide 213.2] (H-WARGCSTGN-OH), the EC50 is 0.0676 nM on GPR55 [1] (SEM and n (2-4), read-out: DMR assays pEC50 (converted)); 0.724 nM on GPR55 [2] (read-out: Internalization assays pEC50 (converted)).

Turning to “ATVRNEDKWKPLNNPRNRDLFFRRLQAYFK [Peptide 175]”, at MRGPRX2, the “Emax, Tango (fold over basal)” value worked out at 3.5 fold over basal and the “pEC50, Tango (fold over basal)” value worked out at 4.67.

As to “DLLPPRTPPYQVHISHREARGPSFRICVDFLG [Peptide 213.5]”, on GPR55 [1], the “DMR assays Emax (peak or AUC)” value was -71711. Also, at GPR55 [2], the “Internalization assays Emax (AUC)” value is 19.6.

As to FLWKDLQRVR [Peptide 56], at MRGPRX2, the “Emax, Tango (fold over basal)” value amounted to 4.9 fold over basal and the “pEC50, Tango (fold over basal)” value was found to be 4.90.

Take “HSDGIFTDSYSRYRKQMAVKKYLAAVL [168 original]”: the “DMR assays Emax (peak or AUC)” value on GPR55 [1] amounted to 312490. Besides, the “Internalization assays Emax (AUC)” value on GPR55 [2] is recorded as 32.4.

For KRLGALFNPYFDPLQWKNSDFE [143 original], the “DMR assays Emax (peak or AUC)” value at GPR55 [1] was found to be 555860. In addition, on GPR55 [2], the “Internalization assays Emax (AUC)” value amounted to 39.5.

Regarding KRYSRLDYLINGIYVDI [114 original], the “DMR assays Emax (peak or AUC)” value on GPR55 [1] amounted to 619843. Moreover, on GPR55 [2], the “Internalization assays Emax (AUC)” value is 46.9.

Take QMAVKKYLAAVL [Peptide 84]: on MRGPRX2, the “Emax, Tango (fold over basal)” value is 7.0 fold over basal and the “pEC50, Tango (fold over basal)” value was determined as 5.02.
